Where “and” joins values, the source holds several entries; their conditions need not be identical. Identical values can stand only once. Ends that are not written are not given here.
Experiments:
Type in all cases: in vivo, human
[1] = system: IL1RA; experiment: Change in cytokine level in ocular fluid samples from administration to surgery
Description: (§1) The primary objective was to determine the Maximum Tolerated Dose (MTD) of a peptide an amino acid sequence […] and the structure of Formula III (ONL1204) and select doses for further clinical studies. During the study, ocular fluid samples were also collected at the time of study drug injection and at the time of vitrectomy. These samples were used for pharmacokinetic and pharmacodynamic analyses.
(§2) Patients were enrolled in ascending dose groups. […] Safety visits were conducted one day post-injection and as deemed necessary by the examining Investigator (at least 1 visit every 3 days) until Visit 3. At Visit 3 (3+ days post-injection, in accordance with standard of care) patients underwent surgical repair of their retinal detachment with vitrectomy (with or without scleral buckling) and gas or oil tamponade. At the time of surgery, an undiluted vitreous sample was collected for pharmacokinetic and pharmacodynamics analyses, and an aqueous sample was collected for pharmacodynamic analysis. Additional safety visits were targeted for and generally conducted one day post-surgery, 7 days (±3 days) post-surgery, 14 (+4 days) days post-surgery, and Weeks 6, 9, 12 (±7 days each), and Week 24 (+14 days; study exit).

[2] = system: IL18; experiment: as above
Description: as §1, §2

[3] = system: MCP1; experiment: as above
Description: as §1, §2

[4] = system: ICAM1; experiment: as above
Description: as §1, §2

[5] = system: patients with retinal detachment; experiment: Clinical study in retinal detachment patients: BCVA after single intravitreal injection followed by vitrectomy; conditions: for summary statistics for all patients, mean (of the BCVA logMAR values of Table 2): all doses 25-200 ug; for BCVA logMAR study eye / BCVA Snellen study eye: individual patients
Description: as §1, §2
Therefore, a volume of 0.05 or 0.1 mL was injected into the study eye. Patient participation was approximately 24 weeks (6 months): a single injection treatment and 24 weeks of follow-up.

[6] = system: patients having macular degeneration characterized by geographic atrophy (GA); experiment: Clinical study in GA patients: best corrected visual acuity (BCVA) after single intravitreal injection; conditions: all patients receiving 25 ug and 50 ug, compared to baseline BCVA
[7] = system: patients with retinal detachment; experiment: Clinical study in retinal detachment patients: safety, adverse event reporting
Description: as §1, §2
Planned determinations of dose limiting toxicity included consideration of the following events: • 1.

[8] = dose 25 ug (Table 1), individual patients
[9] = dose 50 ug (Table 1), individual patients
[10] = dose 100 ug (Table 1), individual patients
[11] = dose 200 ug (Table 1), individual patient
[12] = 8 patients, 25 ug and 50 ug cohorts

## HHIYLGAVNYIY-NH2 [ONL1204]
[1]; all patients of Table 7
  change in IL1RA level from ONL1204 administration to surgery, mean: mean decrease
[1]; [8]
  IL1RA Percent Change (%) from time of administering ONL1204 to surgery: −51.0% and −57.4% and −99.3%
[1]; [9]
  IL1RA Percent Change (%) from time of administering ONL1204 to surgery: −94.4% and −88.3% and −60.0%
[1]; [10]
  IL1RA Percent Change (%) from time of administering ONL1204 to surgery: 8.5% and −46.1% and −65.2%
[1]; [11]
  IL1RA Percent Change (%) from time of administering ONL1204 to surgery: −26.3%
[2]; all patients of Table 7
  change in IL18 level from ONL1204 administration to surgery, mean: mean decrease
[2]; [8]
  IL18 Percent Change (%) from time of administering ONL1204 to surgery: −60.5% and −22.5% and −50.8%
[2]; [9]
  IL18 Percent Change (%) from time of administering ONL1204 to surgery: −100% and 0% (2×)
[2]; [10]
  IL18 Percent Change (%) from time of administering ONL1204 to surgery: −33.7% and 0% and 66.0%
[2]; [11]
  IL18 Percent Change (%) from time of administering ONL1204 to surgery: 0%
[3]; all patients of Table 7
  change in MCP1 level from ONL1204 administration to surgery, mean: mean decrease
[3]; [8]
  MCP1 Percent Change (%) from time of administering ONL1204 to surgery: −41.4% and −6.02% and −35.9%
[3]; [9]
  MCP1 Percent Change (%) from time of administering ONL1204 to surgery: −48.4% and 11.6% and −3.12%
[3]; [10]
  MCP1 Percent Change (%) from time of administering ONL1204 to surgery: −9.5% and 78.5% and 500%
[3]; [11]
  MCP1 Percent Change (%) from time of administering ONL1204 to surgery: −2.4%
[4]; all patients of Table 7
  change in ICAM level from ONL1204 administration to surgery, mean: mean decrease
[4]; [8]
  ICAM1 Percent Change (%) from time of administering ONL1204 to surgery: −82.4% and −42.7% and −86.2%
[4]; [9]
  ICAM1 Percent Change (%) from time of administering ONL1204 to surgery: −100% and 0% and 64.0%
[4]; [10]
  ICAM1 Percent Change (%) from time of administering ONL1204 to surgery: −43.9% and 24.9% and 22.7%
[4]; [11]
  ICAM1 Percent Change (%) from time of administering ONL1204 to surgery: 0%
[5]; Week 6, n 14
  summary statistics for all patients, mean (of the BCVA logMAR values of Table 2): 0.65
[5]; Week 9, n 13
  summary statistics for all patients, mean (of the BCVA logMAR values of Table 2): 0.78
[5]; Week 24, n 13
  summary statistics for all patients, mean (of the BCVA logMAR values of Table 2): 0.56
[5]; all patients receiving ONL1204, also with greater than 10 days of central vision loss, 3 to 7 days from administration to surgery, range of detachment heights and extents
  visual outcomes: improved visual outcomes were observed for all patients
[5]; retinal detachment, all patients receiving 25 ug and 50 ug, intravitreal injection then surgery
  visual outcomes (e.g., visual acuity): improvement in visual outcomes
[5]; week 6, dose 25 ug (Table 1)
  BCVA logMAR study eye: 0.34 logMAR and 0.18 logMAR and 0.82 logMAR (2×)
[5]; week 6, dose 25 ug
  BCVA Snellen study eye: 20/40 and 20/32 and 20/125 (2×)
[5]; week 6, dose 50 ug (Table 1)
  BCVA logMAR study eye: 0.46 logMAR and 0.38 logMAR (2×) and 0.52 logMAR
[5]; week 6, dose 50 ug
  BCVA Snellen study eye: 20/50 (2×) and 20/80
[5]; week 6, dose 100 ug (Table 1)
  BCVA logMAR study eye: 0.8 logMAR and 0.7 logMAR and 1 logMAR and 1.6 logMAR
[5]; week 6, dose 100 ug
  BCVA Snellen study eye: 20/125 and 20/100 and 20/200 and 20/800
[5]; week 6, dose 200 ug (Table 1)
  BCVA logMAR study eye: 0.4 logMAR and 0.7 logMAR
[5]; week 6, dose 200 ug
  BCVA Snellen study eye: 20/50 and 20/100
[5]; week 9, dose 25 ug (Table 1)
  BCVA logMAR study eye: 0.14 logMAR and 0.12 logMAR and 0.64 logMAR and 0.78 logMAR
[5]; week 9, dose 25 ug
  BCVA Snellen study eye: 20/25 (2×) and 20/100 and 20/125
[5]; week 9, dose 50 ug (Table 1)
  BCVA logMAR study eye: 0.6 logMAR and 0.56 logMAR and 0.34 logMAR
[5]; week 9, dose 50 ug
  BCVA Snellen study eye: 20/80 (2×) and 20/50
[5]; week 9, dose 100 ug, HM = hand motion
  BCVA Snellen study eye: 20/200 and 20/80 and 20/400
[5]; week 9, dose 200 ug (Table 1)
  BCVA logMAR study eye: 0.36 logMAR and 0.6 logMAR
[5]; week 9, dose 200 ug
  BCVA Snellen study eye: 20/40 and 20/80
[5]; week 24, dose 25 ug (Table 1)
  BCVA logMAR study eye: 0.5 logMAR and 0.2 logMAR and 0.68 logMAR and 0.7 logMAR
[5]; week 24, dose 25 ug
  BCVA Snellen study eye: 20/60 and 20/32 and 20/100 (2×)
[5]; week 24, dose 50 ug (Table 1)
  BCVA logMAR study eye: 0.76 logMAR and 0.2 logMAR and 0.64 logMAR and 0.34 logMAR
[5]; week 24, dose 50 ug
  BCVA Snellen study eye: 20/125 and 20/32 and 20/80 and 20/50
[5]; week 24, dose 100 ug (Table 1)
  BCVA logMAR study eye: 0.5 logMAR and 0.7 logMAR and 1.3 logMAR and 0.6 logMAR
[5]; week 24, dose 100 ug
  BCVA Snellen study eye: 20/63 and 20/100 and 20/400 and 20/80
[5]; week 24, dose 200 ug (Table 1)
  BCVA logMAR study eye: 0.2 logMAR
[5]; week 24, dose 200 ug
  BCVA Snellen study eye: 20/32
[6]
  visual outcomes (e.g., visual acuity): improvement in visual outcomes
[7]; 4 patients receiving 25 ug and 4 patients receiving 50 ug
  patients experiencing adverse events: 7 out of 8
[7]; [12]
  severity and relatedness of adverse events: Most were mild, and study procedure or surgery related
  total adverse events: 20 adverse events
